Ten compounds from patent US9409952B2, “Peptide-compound cyclization method” (Chugai Seiyaku Kabushiki Kaisha, priority 2011, dated 2016) can be followed below.

Series [1] in a line: PAMPA (parallel artificial membrane permeability assay). In kind it is in vitro ADME. The following applies: PAMPA. The method, boiled down: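 Artificial membrane was 10% (w/v) egg lecithin plus 0.5% (w/v) cholesterol in dodecane on a PVDF filter. A 10 mM DMSO stock was added at 0.5% (v/v) to donor buffer (50 mM MOPSO, pH 6.5, 5.0% glycocholic acid). After 18 h at 37 °C, LC/MS or LC/UV gave donor and acceptor levels for Pe.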
A general note: PAMPA measures passive passage across an artificial lipid membrane.

A short description of series [2]: Metabolic stability in human hepatic microsome. The following applies: microsomes. In kind it is in vitro ADME.
Setting [3] is: membrane permeation rate (Pe), 50 mM MOPSO buffer pH 6.5 with 5.0% glycocholic acid, 37° C., 18 hours, read-out: iPAMPA Pe.
[4] abbreviates: pH 7.4, human hepatic microsome, NADPH(+), read-out: CL NADPH(+).

Read-outs that look alike come from different tables or passages of the source. Starred links: 1 amine or outer side, 2 acyl side, 3 side chain; linkers in the order of their positions; H or OH if unused. Non-standard residues stand in square brackets, D forms with d. Residues, ends and D or L forms follow the SMILES beside them. *: point of attachment. Phe(4-CF3) = N[C@@H](Cc1ccc(C(F)(F)F)cc1)C(=O)O; NMePhe(3-Cl) = CN[C@@H](Cc1cccc(Cl)c1)C(=O)O; NMeF = CN[C@@H](Cc1ccccc1)C(=O)O; NMeGABA = CN(CCCC(=O)[*:2])[*:1]; NMeI = CC[C@H](C)[C@H](NC)C(=O)O; NMeL = CN[C@@H](CC(C)C)C(=O)O; NMeA = CN[C@@H](C)C(=O)O; dNMeA = CN[C@H](C)C(=O)O; β3hA = C[C@H](N)CC(=O)O; Sar = CNCC(=O)O; tBu = CC(C)(C)*

`CC[C@H](C)[C@@H]1NC(=O)[C@H](CC(C)C)N(C)C(=O)[C@H](Cc2ccccc2)N(C)C(=O)[C@@H](C(C)C)NC(=O)C[C@H](C)NC(=O)[C@H](CC(C)C)N(C)C(=O)[C@H](C)N(C)C(=O)[C@H]([C@@H](C)O)NC(=O)[C@H](Cc2cccc(Cl)c2)N(C)C(=O)[C@H](CC(C)C)N(C)C1=O` [DP-782] (cyclo(I[NMeL][NMePhe(3-Cl)]T[NMeA][NMeL][β3hA][dV][NMeF][NMeL])) came in with a Papp at 18 hours, 50 µM in series [1] (pH 6.5) of 10 ×10⁻⁶ cm/s. In series [2] (human, pH 7.4, CL NADPH(+)), this compound yielded a microsomal CLint at 1 uM of 127 µL/min/mg.
Taken in the same sequence, the figures for `CC[C@H](C)[C@@H]1NC(=O)[C@H](C)N(C)C(=O)[C@@H](C)N(C)C(=O)C[C@H](C)NC(=O)[C@H](CC(C)C)N(C)C(=O)[C@H](C)N(C)C(=O)[C@H](Cc2ccccc2)N(C)C(=O)[C@H]([C@@H](C)O)NC(=O)[C@H](Cc2ccccc2)N(C)C(=O)[C@H](CC(C)C)N(C)C1=O` [DP-783] (cyclo(I[NMeL][NMeF]T[NMeF][NMeA][NMeL][β3hA][dNMeA][NMeA])) were 31 ×10⁻⁶ cm/s and 269 µL/min/mg.
Regarding `CC(C)C[C@@H]1NC(=O)[C@H](Cc2ccccc2)NC(=O)[C@H](CC(C)C)N(C)C(=O)[C@H](Cc2ccccc2)NC(=O)[C@@H](C)N(C)C(=O)C[C@H](C)NC(=O)[C@H](Cc2ccccc2)N(C)C(=O)CNC(=O)[C@H]([C@@H](C)O)NC(=O)[C@H](CC(C)C)NC1=O` [DP-784] (cyclo(FLLTG[NMeF][β3hA][dNMeA]F[NMeL])), the Papp at 18 hours, 50 µM in series [1] (pH 6.5) stood at 46 ×10⁻⁶ cm/s. In series [2] (human, pH 7.4, CL NADPH(+)), the microsomal CLint at 1 uM came out at 97 µL/min/mg.
`CC(C)C[C@H]1C(=O)N(C)[C@@H](Cc2ccccc2)C(=O)NCC(=O)N[C@@H](C)CC(=O)N(C)CCCC(=O)N[C@@H]([C@@H](C)O)C(=O)N(C)[C@@H](C)C(=O)N(C)[C@@H](Cc2ccccc2)C(=O)N[C@@H](COC(C)(C)C)C(=O)N1C` [DP-785] (cyclo(G[β3hA][NMeGABA]T[NMeA][NMeF]S(tBu)[NMeL][NMeF])) returned a Papp at 18 hours, 50 µM in series [1] (pH 6.5) of 29 ×10⁻⁶ cm/s. This compound returned a microsomal CLint at 1 uM in series [2] (human, pH 7.4, CL NADPH(+)) of 193 µL/min/mg.
As to `CC(C)C[C@H]1C(=O)N[C@@H](COC(C)(C)C)C(=O)N[C@@H](C)CC(=O)N[C@H](C)C(=O)N(C)[C@@H](C)C(=O)N(C)[C@@H](Cc2ccccc2)C(=O)N(C)[C@@H](C)C(=O)N[C@@H]([C@@H](C)O)C(=O)N(C)[C@@H](C)C(=O)N1C` [DP-786] (cyclo([NMeA][NMeF][NMeA]T[NMeA][NMeL]S(tBu)[β3hA][dA])), the Papp at 18 hours, 50 µM in series [1] (setting [3]) was found to be 5.9 ×10⁻⁶ cm/s. In addition, the microsomal CLint at 1 uM in series [2] (setting [4]) was determined as 14 µL/min/mg.
For `CC(C)C[C@H]1C(=O)N[C@@H](COC(C)(C)C)C(=O)N[C@@H](C)CC(=O)N[C@H](C)C(=O)N(C)[C@@H](C)C(=O)N(C)[C@@H](Cc2ccccc2)C(=O)N(C)[C@@H](CC(C)C)C(=O)N[C@@H]([C@@H](C)O)C(=O)N(C)[C@@H](C)C(=O)N1C` [DP-787] (cyclo([NMeA][NMeF][NMeL]T[NMeA][NMeL]S(tBu)[β3hA][dA])), the Papp at 18 hours, 50 µM in series [1] (setting [3]) was determined as 29 ×10⁻⁶ cm/s. In series [2] (setting [4]), the microsomal CLint at 1 uM is 33 µL/min/mg.
Taken in the same sequence, the figures for `CC(C)C[C@H]1C(=O)N(C)[C@@H](Cc2ccccc2)C(=O)N(C)[C@@H](CC(C)C)C(=O)N[C@@H](C)CC(=O)N[C@H](C(C)C)C(=O)N[C@@H](C)C(=O)N[C@@H]([C@@H](C)O)C(=O)N(C)[C@@H](C)C(=O)N[C@@H](Cc2ccccc2)C(=O)N1C` [DP-788] (cyclo(AT[NMeA]F[NMeL][NMeF][NMeL][β3hA][dV])) were 49 ×10⁻⁶ cm/s and 158 µL/min/mg.
For the compound `CC[C@H](C)[C@H]1C(=O)N[C@@H](C)CC(=O)N(C)[C@H](C)C(=O)N(C)[C@@H](Cc2ccccc2)C(=O)N(C)[C@@H](CC(C)C)C(=O)N[C@@H]([C@@H](C)O)C(=O)N(C)CC(=O)N[C@@H](COC(C)(C)C)C(=O)N(C)[C@@H](CC(C)C)C(=O)N1C` [DP-789] (cyclo([NMeF][NMeL]T[Sar]S(tBu)[NMeL][NMeI][β3hA][dNMeA])), in series [1] (setting [3]), the Papp at 18 hours, 50 µM was 35 ×10⁻⁶ cm/s. Further, the microsomal CLint at 1 uM in series [2] (setting [4]) turned out to be 113 µL/min/mg.
Taken in the same sequence, the figures for `CC(C)C[C@@H]1NC(=O)[C@@H](C(C)C)NC(=O)C[C@H](C)NC(=O)[C@H](CC(C)C)N(C)C(=O)[C@H](Cc2ccccc2)N(C)C(=O)[C@H](CC(C)C)N(C)C(=O)[C@H](Cc2ccc(C(F)(F)F)cc2)NC(=O)[C@H](C)N(C)C(=O)[C@H]([C@@H](C)O)NC1=O` [DP-790] (cyclo(LT[NMeA][Phe(4-CF3)][NMeL][NMeF][NMeL][β3hA][dV])) were 56 ×10⁻⁶ cm/s and 40 µL/min/mg.
Taken in the same sequence, the figures for `CC(C)C[C@@H]1NC(=O)[C@H](Cc2ccccc2)N(C)C(=O)[C@H](C)N(C)C(=O)C[C@H](C)NC(=O)[C@H]([C@@H](C)O)NC(=O)[C@H](CC(C)C)N(C)C(=O)[C@H](Cc2ccccc2)NC(=O)[C@H](CC(C)C)N(C)C(=O)[C@H](CC(C)C)N(C)C1=O` [DP-791] (cyclo(F[NMeL]T[β3hA][NMeA][NMeF]L[NMeL][NMeL])) were 41 ×10⁻⁶ cm/s and 794 µL/min/mg.
